Tested on: not listed separately
Experiment: Stability of target compounds in mouse plasma, HPLC
Type: in vitro ADME, C57BL/6 mice
Details: 50 μM, 37 °C
Protocol: (§1) The stability of the target compounds was tested first, and excellent stability was essential for physiological function evaluation. Phosphate-buffered saline (PBS) of different pH values was used to evaluate the stability of the target compounds in a weakly acidic tumor microenvironment (pH 6.5) versus a weakly alkaline normal physiological environment (pH 7.4). […] The stability of the target compounds in mouse and rat plasma was excellent. The concentrations of all target compounds remained at >80% of the initial concentrations after 24 h, with the concentrations of compounds 1c, 2c, and 3c being 89%, 88%, and 83% in mouse plasma and 86%, 84%, and 81% in rat plasma, respectively (Figure 3c,d).
(§2) PBS (pH 7.4) was made with 137 mM NaCl, 2.7 mM KCl, 10 mM Na2HPO4, and 1.8 mM KH2PO4, while PBS (pH 6.5) was made with 24.6 mM Na2HPO4 and 175.4 mM NaH2PO4. The target compounds were dissolved into the different buffers (50 μM; 1% DMSO), and the mixtures were incubated at 37 °C. A 100-μL sample was transferred to a vial for HPLC analysis at 1, 2, 4, 8, 12, and 24 h. C57BL/6 mice and SD rat orbital whole blood was collected into anticoagulation tubes and centrifuged at 4000× g for 5 min at 4 °C to obtain plasma. The target compounds were dissolved into the plasma (50 μM; 1% DMSO) and incubated at 37 °C. Each sample (100 μL) was collected and precipitated using 100 μL of acetonitrile. The mixture was vortexed for 5 min and centrifuged at 10,000× g for 10 min. The supernatant was transferred to a vial for HPLC analysis after 1, 2, 4, 8, 12, and 24 h.

Row | Compound | concentration relative to initial concentration after 24 h in mouse plasma [%]
1 | C[C@H]1O[C@@H](n2cc(F)c(=O)n(Cc3ccc([N+](=O)[O-])cc3)c2=O)[C@H](O)[C@@H]1O [Compound 1c] | 89
2 | C[C@H]1O[C@@H](n2cc(F)c(=O)n(Cc3ccc([N+](=O)[O-])s3)c2=O)[C@H](O)[C@@H]1O [Compound 3c] | 83

Tested on: not listed separately
Experiment: Stability of target compounds in rat plasma, HPLC
Type: in vitro ADME, SD rat
Details: 50 μM, 37 °C
Protocol: as §1, §2

Row | Compound | concentration relative to initial concentration after 24 h in rat plasma [%]
3 | C[C@H]1O[C@@H](n2cc(F)c(=O)n(Cc3ccc([N+](=O)[O-])cc3)c2=O)[C@H](O)[C@@H]1O [Compound 1c] | 86
4 | C[C@H]1O[C@@H](n2cc(F)c(=O)n(Cc3ccc([N+](=O)[O-])s3)c2=O)[C@H](O)[C@@H]1O [Compound 3c] | 81

Target: T1, NTR (Escherichia coli, UniProt P38489)
T1 construct: host or cells: Escherichia coli
T1 sequence (P38489 whole entry): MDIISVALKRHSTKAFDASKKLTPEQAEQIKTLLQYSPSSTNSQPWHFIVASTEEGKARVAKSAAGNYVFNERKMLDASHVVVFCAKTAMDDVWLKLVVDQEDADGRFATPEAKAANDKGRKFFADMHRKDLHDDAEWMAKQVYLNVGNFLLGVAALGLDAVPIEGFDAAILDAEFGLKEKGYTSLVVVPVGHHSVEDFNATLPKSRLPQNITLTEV
Experiment: In vitro release evaluation: incubation with NTR and NADH, HPLC of derivative and released 5′-DFUR
Type: biochemical
Details: Escherichia coli; 50 µM compound, NTR 50 µg/mL, NADH 2 mM, PBS pH 7.4, 37 °C; read-out: half-life in the presence of NTR (converted)
Protocol: (§3) NTR levels are reportedly much higher in hypoxic tumors than in normal tissues. To investigate the mechanism of activation of the derivatives and the amount of 5′-DFUR released, we treated the target compounds with NTR extracted from Escherichia coli to determine whether they provided the desired active agent as expected. The test compounds (50 µM, 1% dimethyl sulfoxide [DMSO]) were dissolved in PBS buffer at pH 7.4 and incubated with NTR (50 µg/mL) and NADH (2 mM) at 37 °C, and the concentrations of the derivatives and 5′-DFUR during the bioreduction were detected by high-performance liquid chromatography (HPLC). The designed target compounds 1c–3c could be metabolized to form 5′-DFUR in the presence of NTR, while the nitro-free compounds 4c–6c could not be metabolized to form 5′-DFUR. […] The metabolic rate of compound 2c was the highest, with a half-life of 0.6 h. It was completely degraded after 4 h, and 69.6% of 5′-DFUR was released. […] During the experiment, other metabolites, such as hydroxylamine derivatives and amino derivatives generated by reducing the nitro group were also detected. […] Compounds 4c, 5c and 6c, without nitro groups, remained well-stabilized under NTR conditions, with concentrations > 90% after 12 h.
(§4) The target compounds NTR and NADH were dissolved in 10 mM PBS (pH 7.4; 1% DMSO). The final concentrations of the target compounds NTR and NADH in the mixtures were 50 μM, 50 μg/mL, and 2 mM, respectively. The mixture were incubated at 37 °C. The sample (100 μL) was collected and quenched by 100 µL of cold methanol. The mixture was vortexed for 5 min and centrifuged at 10,000× g for 10 min. The supernatant was transferred to a vial for HPLC analysis at 0.25, 0.5, 1, 2, 4, 8, and 12 h.

Row | Compound | half-life at 50 µM [h]
5 | C[C@H]1O[C@@H](n2cc(F)c(=O)n(Cc3ccc([N+](=O)[O-])cc3)c2=O)[C@H](O)[C@@H]1O [Compound 1c] | 1.3
6 | C[C@H]1O[C@@H](n2cc(F)c(=O)n(Cc3ccc([N+](=O)[O-])s3)c2=O)[C@H](O)[C@@H]1O [Compound 3c] | 1

Target: T2, NTR extracted from Escherichia coli (Escherichia coli, UniProt P38489)
T2 construct: host or cells: Escherichia coli
T2 sequence (P38489 whole entry): as above
Experiment: as above
Type: biochemical
Details: 50 µM compound, NTR 50 µg/mL, NADH 2 mM, PBS pH 7.4, 37 °C
Protocol: as §3, §4

Row | Compound | time after which compound was completely degraded by NTR [h]
7 | C[C@H]1O[C@@H](n2cc(F)c(=O)n(Cc3ccc([N+](=O)[O-])cc3)c2=O)[C@H](O)[C@@H]1O [Compound 1c] | 12
8 | C[C@H]1O[C@@H](n2cc(F)c(=O)n(Cc3ccc([N+](=O)[O-])s3)c2=O)[C@H](O)[C@@H]1O [Compound 3c] | 8

Same assay, conditions: 50 µM compound, NTR 50 µg/mL, NADH 2 mM, PBS pH 7.4, 37 °C, at complete degradation

Row | Compound | 5′-DFUR released [%]
9 | C[C@H]1O[C@@H](n2cc(F)c(=O)n(Cc3ccc([N+](=O)[O-])cc3)c2=O)[C@H](O)[C@@H]1O [Compound 1c] | 45.1
10 | C[C@H]1O[C@@H](n2cc(F)c(=O)n(Cc3ccc([N+](=O)[O-])s3)c2=O)[C@H](O)[C@@H]1O [Compound 3c] | 55.6

Tested on: MCF-7 human breast cancer cells
Experiment: In vitro cytotoxicity (MTT assay) in MCF-7 cells with or without NTR
Type: cell-based
Details: Homo sapiens, MCF7; MCF-7, 24 h, medium with NTR and NADH 2 mM, MTT; read-out: IC50 NTR
Protocol: (§5) The cytotoxicity of the target compounds 1c–6c were evaluated in MCF-7 human breast cancer cells and HT29 human colon cancer cells. These two cell lines were chosen because 5′-DFUR is currently used to treat breast and gastrointestinal tumors. The cells were incubated with the target compounds at various concentrations for 24 h in the presence or absence of NTR. The cell viability and proliferation behavior were assessed by 3-(4,5-dimethylthiazol-2-yl)-2,5-diphenyltetrazolium (MTT) assay. The half-maximal inhibitory concentration values of the tested compounds for inhibiting cell proliferation are shown in Table 1.
(§6) MCF-7 human breast cancer cells or HT29 human colon cancer cells purchased from the National Collection of Authenticated Cell Cultures were cultured in RPMI 1640 medium, and McCoy’s 5A medium supplemented with 10% fetal bovine serum and 1% penicillin-streptomycin in a humidified 5% CO2 incubator at 37 °C. Cells in the logarithmic growth phase were inoculated into 96-well plates at a density of 1.0 × 10^4 cells per well and cultured for 24 h. The target compounds were dissolved in DMSO and diluted in medium to different concentrations. The cells were then incubated with different concentrations of the target compound for 24 h. The cells in the NTR treatment group were incubated with various concentrations of compounds, NTR (final concentration, 50 µg/mL) and NADH (final concentration, 2 mM) for 24 h. Cell viability and proliferation were measured by MTT assay. Cell viability was calculated according to the following formula: cell viability (%) = (OD value of treatment group–OD value of blank group)/(OD value of control group–OD value of blank group) × 100. The half-maximal inhibitory concentration values were calculated from concentration-response curves using GraphPad PRISM (version 5.0, GraphPad, San Diego, CA, USA).

Row | Compound | IC50 [µM]
11 | C[C@H]1O[C@@H](n2cc(F)c(=O)n(Cc3ccc([N+](=O)[O-])cc3)c2=O)[C@H](O)[C@@H]1O [Compound 1c] | 106
12 | C[C@H]1O[C@@H](n2cc(F)c(=O)n(Cc3ccc([N+](=O)[O-])s3)c2=O)[C@H](O)[C@@H]1O [Compound 3c] | 96.4
13 | C[C@H]1O[C@@H](n2cc(F)c(=O)[nH]c2=O)[C@H](O)[C@@H]1O [5′-DFUR, 5′-deoxy-5-fluorouridine, reference compound] | 86.7

Same assay, conditions: Homo sapiens, MCF7; MCF-7, 24 h, medium without NTR, MTT; read-out: IC50 NTR-Free

Row | Compound | IC50 [µM]
14 | C[C@H]1O[C@@H](n2cc(F)c(=O)n(Cc3ccc([N+](=O)[O-])cc3)c2=O)[C@H](O)[C@@H]1O [Compound 1c] | 470
15 | C[C@H]1O[C@@H](n2cc(F)c(=O)n(Cc3ccc([N+](=O)[O-])s3)c2=O)[C@H](O)[C@@H]1O [Compound 3c] | 435
16 | C[C@H]1O[C@@H](n2cc(F)c(=O)[nH]c2=O)[C@H](O)[C@@H]1O [5′-DFUR, 5′-deoxy-5-fluorouridine, reference compound] | 83.6

Same assay, conditions: MCF-7, selectivity ratio

Row | Compound | IC50 (NTR-Free)/ IC50 (NTR)
17 | C[C@H]1O[C@@H](n2cc(F)c(=O)n(Cc3ccc([N+](=O)[O-])cc3)c2=O)[C@H](O)[C@@H]1O [Compound 1c] | 4.42
18 | C[C@H]1O[C@@H](n2cc(F)c(=O)n(Cc3ccc([N+](=O)[O-])s3)c2=O)[C@H](O)[C@@H]1O [Compound 3c] | 4.52
19 | C[C@H]1O[C@@H](n2cc(F)c(=O)[nH]c2=O)[C@H](O)[C@@H]1O [5′-DFUR, 5′-deoxy-5-fluorouridine, reference compound] | 0.96

Tested on: HT29 human colon cancer cells
Experiment: In vitro cytotoxicity (MTT assay) in HT29 cells with or without NTR
Type: cell-based
Details: HT29, selectivity ratio
Protocol: as §5, §6

Row | Compound | IC50 (NTR-Free)/ IC50 (NTR)
20 | C[C@H]1O[C@@H](n2cc(F)c(=O)n(Cc3ccc([N+](=O)[O-])cc3)c2=O)[C@H](O)[C@@H]1O [Compound 1c] | 7.39
21 | C[C@H]1O[C@@H](n2cc(F)c(=O)n(Cc3ccc([N+](=O)[O-])s3)c2=O)[C@H](O)[C@@H]1O [Compound 3c] | 7.22
22 | C[C@H]1O[C@@H](n2cc(F)c(=O)[nH]c2=O)[C@H](O)[C@@H]1O [5′-DFUR, 5′-deoxy-5-fluorouridine, reference compound] | 1.05

Same assay, conditions: Homo sapiens, HT-29; HT29, 24 h, medium with NTR and NADH 2 mM, MTT; read-out: IC50 NTR

Row | Compound | IC50 [µM]
23 | C[C@H]1O[C@@H](n2cc(F)c(=O)n(Cc3ccc([N+](=O)[O-])cc3)c2=O)[C@H](O)[C@@H]1O [Compound 1c] | 79
24 | C[C@H]1O[C@@H](n2cc(F)c(=O)n(Cc3ccc([N+](=O)[O-])s3)c2=O)[C@H](O)[C@@H]1O [Compound 3c] | 63.3
25 | C[C@H]1O[C@@H](n2cc(F)c(=O)[nH]c2=O)[C@H](O)[C@@H]1O [5′-DFUR, 5′-deoxy-5-fluorouridine, reference compound] | 48.1

Same assay, conditions: Homo sapiens, HT-29; HT29, 24 h, medium without NTR, MTT; read-out: IC50 NTR-Free

Row | Compound | IC50 [µM]
26 | C[C@H]1O[C@@H](n2cc(F)c(=O)n(Cc3ccc([N+](=O)[O-])cc3)c2=O)[C@H](O)[C@@H]1O [Compound 1c] | 584
27 | C[C@H]1O[C@@H](n2cc(F)c(=O)n(Cc3ccc([N+](=O)[O-])s3)c2=O)[C@H](O)[C@@H]1O [Compound 3c] | 457
28 | C[C@H]1O[C@@H](n2cc(F)c(=O)[nH]c2=O)[C@H](O)[C@@H]1O [5′-DFUR, 5′-deoxy-5-fluorouridine, reference compound] | 50.4

Tested on: HT29 colon cancer cells
Experiment: In vivo antitumor activity in HT29 tumor-bearing mice
Details: 50 mg/kg intraperitoneally every 2 days for 4 weeks, HT29 tumor-bearing C57BL/6 mice
Protocol: Compound 2c, which has excellent stability, a high metabolic rate, and strong cytotoxicity under NTR conditions in vitro, was selected for the in vivo evaluation of antitumor activity in tumor-bearing mice. Tumor-bearing mice were generated by the axillary injection of HT29 colon cancer cells into C57BL/6 mice. When the tumors grew to approximately 100–150 mm^3, the mice were randomly divided into negative control (vehicle), compound 2c (50 mg/kg), and positive control 5′-DFUR (50 mg/kg) groups (n = 6 each). The mice were injected intraperitoneally every 2 days for 4 weeks, and the tumor volume and body weight of the mice were measured every 2 days. No death occurred in any group of mice during the experimental period.
Four-week-old C57BL/6 mice were purchased from Jinan Pengyue Experimental Animal Breeding Co. Ltd. (Jinan, China). The mice were housed in cages under a 12-h light/dark cycle from 7:00 to 19:00 at controlled temperatures (25–26 °C) and relative humidity (50 ± 10%) throughout the experimental period. All animals were allowed to eat and drink freely unless otherwise stated and allowed to acclimate for 1 week before the experiment. All animal experimental protocols were performed in accordance with applicable institutional and governmental regulations concerning the ethical use of animals (AP2024022954).
The tumor-bearing mice model was established by the subcutaneous injection of HT29 cells (1 × 10^7 cells/mL) purchased from the National Collection of Authenticated Cell Cultures to the right axilla of C57BL/6 mice (100 µL/mouse). When the tumor size reached 100–150 mm^3, the mice were evenly divided into negative control (vehicle), group 2c (50 mg/kg), and 5′-DFUR (50 mg/kg) groups (n = 6 each). Compound 2c and 5′-DFUR were dissolved in a solution containing 10% ethanol, 10% castor oil, and 80% saline that also served as the negative control. The mice were injected intraperitoneally every 2 days for 4 weeks, and the tumor volumes and body weights of the mice were measured every 2 days. Tumor volume was calculated using the following formula: tumor volume = length (mm) × width (mm) × width (mm) × 0.5. The TGI rate was determined as follows: TGI = 1 − (treatment final volume − treatment initial volume)/(control final volume − control initial volume) × 100%.

Row | Compound | tumor growth inhibition (TGI) rate [%]
29 | C[C@H]1O[C@@H](n2cc(F)c(=O)[nH]c2=O)[C@H](O)[C@@H]1O [5′-DFUR, 5′-deoxy-5-fluorouridine, reference compound] | 83.0

From PMC11547703, “Design, Synthesis, and Evaluation of Doxifluridine Derivatives as Nitroreductase-Responsive Anticancer Prodrugs” (Molecules, 2024)
